Data: ChEMBL document CHEMBL5465560, “Selectivity Literature for EUbOPEN Chemogenomic Library” (2024)

How the values were obtained:
[1] = target: T1, Serine/threonine-protein kinase TAO3 (Homo sapiens) (UniProt Q9H2K8); assay: Selectivity interaction (KinomeScan (DiscoverX)) EUB0000229b TAOK3; conditions: at 10 µM
T1 sequence (whole entry): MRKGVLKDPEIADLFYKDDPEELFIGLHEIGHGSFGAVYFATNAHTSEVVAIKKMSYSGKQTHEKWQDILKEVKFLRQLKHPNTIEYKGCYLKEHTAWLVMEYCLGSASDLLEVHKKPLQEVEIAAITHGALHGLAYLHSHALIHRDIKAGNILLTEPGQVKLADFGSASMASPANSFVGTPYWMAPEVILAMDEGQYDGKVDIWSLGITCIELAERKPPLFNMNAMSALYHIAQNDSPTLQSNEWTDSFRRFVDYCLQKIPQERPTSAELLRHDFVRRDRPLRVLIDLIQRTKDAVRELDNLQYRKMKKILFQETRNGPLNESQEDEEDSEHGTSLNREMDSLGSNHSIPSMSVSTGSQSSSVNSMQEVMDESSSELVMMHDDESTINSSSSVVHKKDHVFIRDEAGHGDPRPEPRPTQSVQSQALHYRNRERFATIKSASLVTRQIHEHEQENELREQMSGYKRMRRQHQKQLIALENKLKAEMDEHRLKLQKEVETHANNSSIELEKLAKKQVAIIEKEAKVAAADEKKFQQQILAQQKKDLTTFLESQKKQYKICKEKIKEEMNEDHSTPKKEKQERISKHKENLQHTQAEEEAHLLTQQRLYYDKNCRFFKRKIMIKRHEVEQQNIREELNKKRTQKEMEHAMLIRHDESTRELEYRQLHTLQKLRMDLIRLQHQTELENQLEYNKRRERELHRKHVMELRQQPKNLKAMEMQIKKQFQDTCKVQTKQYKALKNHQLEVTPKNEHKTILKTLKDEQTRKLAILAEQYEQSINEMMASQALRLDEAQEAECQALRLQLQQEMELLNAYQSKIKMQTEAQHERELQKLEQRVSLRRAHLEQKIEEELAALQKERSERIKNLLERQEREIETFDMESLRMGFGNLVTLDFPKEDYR

[2] = target: Cyclin-dependent kinase 4/cyclin D1 (Homo sapiens) (UniProt P11802+P24385); assay: (§1) Selectivity interaction (KinomeScan (DiscoverX)) EUB0001079a CDK4; type: protein-complex assay; conditions: at 1 µM
[3] = target: CDK4/Cyclin D3 (Homo sapiens) (UniProt P11802+P30281); assay: as §1; type: protein-complex assay; conditions: at 1 µM
[4] = target: Bromodomain-containing protein 4 (Homo sapiens, UniProt O60885); assay: Selectivity interaction (Human bromodomain panel (DSF assay)) EUB0000233b BRD4
[5] = target: T2, Ephrin type-A receptor 6 (Homo sapiens) (UniProt Q9UF33); assay: Selectivity interaction (KinomeScan (DiscoverX)) EUB0000666a EPHA6; conditions: at 10 µM
T2 sequence (whole entry): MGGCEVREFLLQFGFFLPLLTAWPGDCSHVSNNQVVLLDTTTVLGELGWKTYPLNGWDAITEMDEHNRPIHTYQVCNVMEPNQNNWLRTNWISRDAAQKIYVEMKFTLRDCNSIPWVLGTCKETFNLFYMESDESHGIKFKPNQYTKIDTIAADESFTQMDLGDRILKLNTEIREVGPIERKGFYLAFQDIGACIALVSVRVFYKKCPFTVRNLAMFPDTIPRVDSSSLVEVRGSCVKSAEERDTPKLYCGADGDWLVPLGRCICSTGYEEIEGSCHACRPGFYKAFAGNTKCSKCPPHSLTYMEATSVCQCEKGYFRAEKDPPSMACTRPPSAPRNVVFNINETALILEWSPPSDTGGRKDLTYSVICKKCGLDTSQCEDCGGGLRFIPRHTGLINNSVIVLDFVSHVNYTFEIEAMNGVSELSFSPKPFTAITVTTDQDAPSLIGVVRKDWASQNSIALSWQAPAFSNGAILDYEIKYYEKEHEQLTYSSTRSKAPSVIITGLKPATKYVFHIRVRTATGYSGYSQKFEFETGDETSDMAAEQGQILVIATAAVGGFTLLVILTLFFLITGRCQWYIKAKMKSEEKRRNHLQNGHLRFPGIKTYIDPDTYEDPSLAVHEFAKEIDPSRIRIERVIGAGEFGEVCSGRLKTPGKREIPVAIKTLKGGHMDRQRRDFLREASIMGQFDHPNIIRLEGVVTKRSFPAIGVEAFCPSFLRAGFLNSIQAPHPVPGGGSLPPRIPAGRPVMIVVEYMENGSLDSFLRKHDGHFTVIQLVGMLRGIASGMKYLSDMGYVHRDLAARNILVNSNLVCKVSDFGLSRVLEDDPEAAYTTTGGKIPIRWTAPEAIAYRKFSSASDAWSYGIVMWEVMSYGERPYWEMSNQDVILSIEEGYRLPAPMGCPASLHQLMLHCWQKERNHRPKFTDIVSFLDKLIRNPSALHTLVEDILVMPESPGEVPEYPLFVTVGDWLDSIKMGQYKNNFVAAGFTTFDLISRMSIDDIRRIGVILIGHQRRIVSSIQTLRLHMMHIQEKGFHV

[6] = target: Ribosomal protein S6 kinase alpha-6 (Homo sapiens, UniProt Q9UK32); assay: Selectivity interaction (KinomeScan (DiscoverX)) EUB0000607a RPS6KA6; conditions: at 10 µM
[7] = target: Serine/threonine-protein kinase Chk2 (Homo sapiens) (UniProt O96017); assay: Selectivity interaction (KinomeScan (DiscoverX)) EUB0000595a CHEK2; conditions: at 10 µM
[8] = target: Casein kinase I isoform gamma-2 (Homo sapiens) (UniProt P78368); assay: Selectivity interaction (Ambit KINOMEscan and KiNATiv profiling in Jurkat cells) EUB0000090b CSNK1G2; type: cell-based; conditions: at 1 µM
[9] = target: T3, Homeodomain-interacting protein kinase 4 (Homo sapiens) (UniProt Q8NE63); assay: Selectivity interaction (Ambit KINOMEscan and KiNATiv profiling in Jurkat cells) EUB0000090b HIPK4; type: cell-based; conditions: at 1 µM
T3 sequence (whole entry): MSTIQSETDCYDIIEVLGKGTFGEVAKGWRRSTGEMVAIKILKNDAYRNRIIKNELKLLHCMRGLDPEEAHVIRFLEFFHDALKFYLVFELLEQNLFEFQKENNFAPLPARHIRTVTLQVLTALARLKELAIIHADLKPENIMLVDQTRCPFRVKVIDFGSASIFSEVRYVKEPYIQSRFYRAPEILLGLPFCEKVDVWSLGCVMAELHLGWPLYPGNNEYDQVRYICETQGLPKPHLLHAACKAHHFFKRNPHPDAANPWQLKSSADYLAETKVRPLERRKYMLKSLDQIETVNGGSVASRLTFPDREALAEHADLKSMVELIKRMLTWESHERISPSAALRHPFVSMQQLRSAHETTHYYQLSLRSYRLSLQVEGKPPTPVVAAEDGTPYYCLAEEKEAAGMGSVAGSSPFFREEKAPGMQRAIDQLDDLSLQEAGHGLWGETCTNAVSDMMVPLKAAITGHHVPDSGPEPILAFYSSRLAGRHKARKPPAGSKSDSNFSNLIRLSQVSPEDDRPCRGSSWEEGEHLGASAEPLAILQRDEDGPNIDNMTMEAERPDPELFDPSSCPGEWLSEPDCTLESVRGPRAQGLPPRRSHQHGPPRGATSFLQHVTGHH

Sequence of Ribosomal protein S6 kinase alpha-6 (Q9UK32 whole entry): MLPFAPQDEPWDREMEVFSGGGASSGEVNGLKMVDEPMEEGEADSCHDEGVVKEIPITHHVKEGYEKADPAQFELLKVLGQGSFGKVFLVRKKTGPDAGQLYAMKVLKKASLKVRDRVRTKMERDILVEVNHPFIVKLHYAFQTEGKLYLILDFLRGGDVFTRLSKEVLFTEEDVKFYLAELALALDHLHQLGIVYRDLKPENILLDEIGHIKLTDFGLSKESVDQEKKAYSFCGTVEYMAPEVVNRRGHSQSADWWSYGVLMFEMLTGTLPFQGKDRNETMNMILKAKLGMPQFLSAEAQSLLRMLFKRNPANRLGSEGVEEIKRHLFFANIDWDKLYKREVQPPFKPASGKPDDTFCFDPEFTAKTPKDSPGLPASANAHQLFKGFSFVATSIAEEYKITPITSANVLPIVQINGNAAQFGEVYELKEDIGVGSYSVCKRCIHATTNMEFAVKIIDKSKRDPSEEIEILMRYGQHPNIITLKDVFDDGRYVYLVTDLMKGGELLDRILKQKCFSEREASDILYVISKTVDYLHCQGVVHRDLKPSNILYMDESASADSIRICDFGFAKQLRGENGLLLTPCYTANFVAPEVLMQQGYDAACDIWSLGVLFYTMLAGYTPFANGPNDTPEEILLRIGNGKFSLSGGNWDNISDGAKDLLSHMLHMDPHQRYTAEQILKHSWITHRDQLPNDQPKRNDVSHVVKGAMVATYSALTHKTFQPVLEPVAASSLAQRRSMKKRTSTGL
Sequence of Casein kinase I isoform gamma-2 (Homo sapiens) (P78368 whole entry, looked up, canonical isoform): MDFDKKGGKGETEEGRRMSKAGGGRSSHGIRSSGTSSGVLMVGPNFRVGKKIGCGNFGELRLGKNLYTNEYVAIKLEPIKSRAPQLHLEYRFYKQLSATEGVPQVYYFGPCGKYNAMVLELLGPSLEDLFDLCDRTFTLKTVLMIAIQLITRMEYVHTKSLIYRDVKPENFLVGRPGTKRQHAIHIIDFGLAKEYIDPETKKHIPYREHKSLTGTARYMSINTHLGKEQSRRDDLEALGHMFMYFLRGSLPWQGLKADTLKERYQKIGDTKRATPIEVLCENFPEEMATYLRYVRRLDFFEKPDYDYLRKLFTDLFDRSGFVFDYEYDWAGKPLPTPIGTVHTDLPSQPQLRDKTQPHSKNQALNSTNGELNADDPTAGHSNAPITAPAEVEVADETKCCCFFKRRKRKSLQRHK
Sequence of Serine/threonine-protein kinase Chk2 (Homo sapiens) (O96017 whole entry, canonical isoform): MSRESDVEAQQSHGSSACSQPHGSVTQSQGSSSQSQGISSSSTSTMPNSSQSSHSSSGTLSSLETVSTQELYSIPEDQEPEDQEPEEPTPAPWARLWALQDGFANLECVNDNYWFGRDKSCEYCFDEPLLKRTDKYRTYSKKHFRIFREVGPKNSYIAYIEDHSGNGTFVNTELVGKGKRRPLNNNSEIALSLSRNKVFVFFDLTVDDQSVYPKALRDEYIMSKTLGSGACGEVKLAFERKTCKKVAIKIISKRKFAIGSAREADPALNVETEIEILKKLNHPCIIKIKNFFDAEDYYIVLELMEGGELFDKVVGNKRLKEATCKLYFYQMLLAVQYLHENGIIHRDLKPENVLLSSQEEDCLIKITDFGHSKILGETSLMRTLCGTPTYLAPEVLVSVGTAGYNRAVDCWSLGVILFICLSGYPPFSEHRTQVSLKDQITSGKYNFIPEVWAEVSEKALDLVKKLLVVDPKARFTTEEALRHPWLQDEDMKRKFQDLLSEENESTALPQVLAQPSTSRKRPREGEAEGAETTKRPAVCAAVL

With `COc1cc(N(C)c2ccnc3ccc(C(F)(F)F)cc23)cc(OC)c1OC` as the compound, how does the % binding [1] read?
The % binding was 80%.

Which % of control [2] does the source give for `Nc1cnc(N2CCc3cc(S(=O)(=O)Nc4c(F)cc(Cl)cc4F)cc(N4CCCC4=O)c32)nc1` [TP-020n] here?
Its % of control is 97%.

And the % of control [3]?
The % of control was 86%.

Which dTM [4] does the source give for `CN(C)CCCOc1ccc(-c2cc(NCCCn3cccn3)nc(S(C)(=O)=O)n2)cc1` here?
The dTM was less than 2 K.

`O=C(NOC[C@H](O)CO)c1ccc(F)c(F)c1Nc1ccc(I)cc1F` was tested. Which % of control [5] did it give?
Its % of control is 94%.

`CNC(=O)Nc1ccc(-c2nc(N3CC4CCC(C3)O4)c3cnn(C4CCC5(CC4)OCCO5)c3n2)cc1` was tested. Which % of control [6] did it give?
The % of control was 87%.

With `COCC(=O)NC/C=C/c1ccc2ncnc(Nc3ccc(Oc4ccc(C)nc4)c(C)c3)c2c1` [CP-724714] as the compound, how does the % of control [7] read?
Its % of control is 55%.

For `CN(C)C/C=C/C(=O)Nc1ccc(C(=O)N2CCCC(Nc3ncc(Cl)c(-c4c[nH]c5ccccc45)n3)C2)cc1` (centres undefined), which % of control [8] is on record?
The % of control was 98%.

What about the % of control [9] of the same compound?
The % of control was 47%.
